Some test systems named below: A549 NSCLC; EKVX NSCLC; HCT-15 colon; HOP-92 NSCLC; KM12 colon; NCI-H460 lung; OVCAR-5 ovarian; U251 CNS; UACC-257 melanoma; UO-31 renal.
Common to all, as to test: NCI anticancer screen, dose series, 48 h

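Assay format: 96-well plates, 48-hour exposure. The concentration for 50% growth inhibition is given as GI50. At the TGI there is no net growth.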

TGI and GI50 data for 13 molecules are collected here from PubChem BioAssay (NCI).

Take `COc1ccc(NC(=O)/C(CC2=Nc3ccc([N+](=O)[O-])cc3NC2O)=N\NC(=O)C[N+](C)(C)C)c(OC)c1` (centres undefined): the TGI in the assay on A549 NSCLC, with EKVX NSCLC, with HCT-15 colon, in the assay on HOP-92 NSCLC, in the assay on KM12 colon and with NCI-H460 lung was more than 100 µM throughout. For the same molecule, the TGI with OVCAR-5 ovarian, in the assay with U251 CNS, with UACC-257 melanoma and in the assay on UO-31 renal was more than 100 µM each time.
In the case of `Brc1ccccc1-c1ncc(-c2ccccc2)o1`, the TGI is more than 100 µM in the assay on A549 NSCLC; more than 100 µM in the assay with EKVX NSCLC; 44.9 µM in the assay on HCT-15 colon; 46.3 µM with HOP-92 NSCLC; 41.7 µM in the assay on KM12 colon; more than 100 µM in the assay with NCI-H460 lung. Further, the TGI with OVCAR-5 ovarian is more than 100 µM; in the assay on U251 CNS, 44.2 µM; with UACC-257 melanoma it was more than 100 µM; in the assay with UO-31 renal it was more than 100 µM.
As to `N#Cc1c(NC(=S)NC(=O)c2ccccc2)nc2c(c1-c1ccccc1)CCCC2`, the TGI with A549 NSCLC, with HCT-15 colon, with KM12 colon, with NCI-H460 lung, in the assay with OVCAR-5 ovarian and in the assay on U251 CNS was more than 100 µM in each case. Also, the TGI with UACC-257 melanoma and in the assay with UO-31 renal was more than 100 µM each time.
On to `COc1cc(C2c3cc4c(cc3[C@@H](Nc3cccc(C(C)=O)c3)C3COC(=O)[C@H]23)OCO4)cc(OC)c1O` (some centres undefined), for which the TGI in the assay with A549 NSCLC is 1.99 µM; in the assay on EKVX NSCLC, more than 22.3 µM; with HCT-15 colon, 2.06 µM; with HOP-92 NSCLC, 14.8 µM; in the assay with KM12 colon, 5.67 µM; in the assay on NCI-H460 lung, 1.07 µM. In addition, the TGI with OVCAR-5 ovarian was more than 59.7 µM; in the assay on U251 CNS it was 9.97 µM; in the assay with UACC-257 melanoma it was 8.57 µM; in the assay on UO-31 renal it was 6.89 µM.
As to `CCOC(=O)/C=C(\C)c1ccc(OC)cc1`, the TGI in the assay on A549 NSCLC, in the assay with EKVX NSCLC, with HCT-15 colon, with HOP-92 NSCLC, in the assay on KM12 colon and in the assay with NCI-H460 lung was more than 100 µM each time. In addition, the TGI in the assay with OVCAR-5 ovarian, in the assay on U251 CNS, in the assay on UACC-257 melanoma and in the assay on UO-31 renal was more than 100 µM each time.
In the case of `CN(C)c1ccc(N=Nc2ccccn2)cc1`, the TGI in the assay on A549 NSCLC, in the assay with EKVX NSCLC, in the assay on HCT-15 colon, in the assay with HOP-92 NSCLC, with KM12 colon and in the assay on NCI-H460 lung was more than 100 µM each time. The TGI was more than 100 µM in the assay with OVCAR-5 ovarian, 33 µM in the assay on U251 CNS, 25.7 µM in the assay with UACC-257 melanoma and 79.8 µM in the assay with UO-31 renal.
`ClCc1c(Cl)c(Cl)c(Cl)c(CCl)c1Cl`: the GI50 is 4.8 µM with A549 NSCLC; 1.81 µM in the assay with EKVX NSCLC; 1.52 µM with HCT-15 colon; 1.55 µM in the assay with HOP-92 NSCLC; 1.85 µM in the assay on KM12 colon; 1.79 µM in the assay on NCI-H460 lung. In addition, the GI50 with OVCAR-5 ovarian was 1.93 µM; in the assay with U251 CNS, 1.71 µM; in the assay with UACC-257 melanoma, 1.84 µM; in the assay with UO-31 renal it was 1.63 µM. Moreover, the TGI in the assay on A549 NSCLC amounted to 16.3 µM; in the assay on EKVX NSCLC, 4.15 µM; with HCT-15 colon, 2.85 µM; with HOP-92 NSCLC it was 3.15 µM; in the assay on KM12 colon it was 3.48 µM; in the assay on NCI-H460 lung, 3.39 µM. Also, the TGI with OVCAR-5 ovarian is 4.18 µM; in the assay on U251 CNS it was 3.08 µM; in the assay on UACC-257 melanoma, 3.45 µM; with UO-31 renal, 3.12 µM.
In the case of `C#CC[C@@H]1C[C@]2(C)[C@H]3CC=C4[C@H]5CC(C)(C)CC[C@]5(C(=O)NCCCCN)CC[C@@]4(C)[C@]3(C)CC[C@H]2C(C)(C)[C@H]1OC(C)=O`, the GI50 was 1.66 µM in the assay on A549 NSCLC; 1.69 µM with EKVX NSCLC; 1.33 µM in the assay with HOP-92 NSCLC; 1.68 µM in the assay on KM12 colon; 1.84 µM with NCI-H460 lung; 1.62 µM with OVCAR-5 ovarian. The GI50 was 1.69 µM in the assay on U251 CNS, 1.87 µM in the assay with UACC-257 melanoma and 1.41 µM in the assay on UO-31 renal. In addition, the TGI in the assay with A549 NSCLC worked out at 3.27 µM; in the assay on EKVX NSCLC it was 3.3 µM; with HOP-92 NSCLC, 2.81 µM; in the assay on KM12 colon it was 3.18 µM; in the assay with NCI-H460 lung, 3.47 µM; with OVCAR-5 ovarian, 2.99 µM. The TGI with U251 CNS was determined as 3.21 µM; in the assay with UACC-257 melanoma, 3.61 µM; in the assay with UO-31 renal, 2.71 µM.
Turning to `CC(C)(Br)C1(O)CCCN1C(=O)c1ccccc1` (centres undefined), the TGI in the assay with A549 NSCLC, with EKVX NSCLC, in the assay with HCT-15 colon, in the assay on HOP-92 NSCLC, in the assay on KM12 colon and in the assay on NCI-H460 lung was more than 100 µM each time. Besides, the TGI in the assay on OVCAR-5 ovarian, with U251 CNS, in the assay with UACC-257 melanoma and in the assay on UO-31 renal was more than 100 µM throughout.
For `Cc1ccc(S(N)(=O)=O)cc1`, the TGI with A549 NSCLC, with EKVX NSCLC, in the assay on HCT-15 colon, with HOP-92 NSCLC, with KM12 colon and with NCI-H460 lung was more than 1000 µM in each case. Also, the TGI in the assay with OVCAR-5 ovarian, with U251 CNS, with UACC-257 melanoma and in the assay on UO-31 renal was more than 1000 µM throughout.
On to `COc1ccc(-c2cc(N3CCN(c4ccccc4)CC3)c(C#N)c(=O)o2)cc1`, for which the TGI in the assay on A549 NSCLC, in the assay on EKVX NSCLC, with HCT-15 colon, in the assay with HOP-92 NSCLC, in the assay with KM12 colon and with NCI-H460 lung was more than 100 µM throughout. In addition, the TGI is more than 100 µM in the assay with OVCAR-5 ovarian, more than 100 µM with U251 CNS, more than 100 µM in the assay with UACC-257 melanoma and 44.8 µM in the assay with UO-31 renal.
In the case of `NCc1ccc(C(=O)O)cc1`, the TGI in the assay on A549 NSCLC, in the assay with EKVX NSCLC, in the assay on HCT-15 colon, in the assay with HOP-92 NSCLC, in the assay with KM12 colon and with NCI-H460 lung was more than 100 µM in each case. In addition, the TGI with OVCAR-5 ovarian, in the assay on U251 CNS, with UACC-257 melanoma and with UO-31 renal was more than 100 µM in each case.
On to `COc1ccc(NC(=O)/C(=C/c2ccc(N(CCC#N)CCC#N)cc2)NC(=O)c2cc([N+](=O)[O-])ccc2Cl)cc1`, for which the TGI in the assay with A549 NSCLC is 89.7 µM; in the assay with EKVX NSCLC, more than 100 µM; in the assay with HCT-15 colon, more than 100 µM; in the assay with HOP-92 NSCLC it was more than 100 µM; in the assay with KM12 colon it was more than 100 µM; with OVCAR-5 ovarian, more than 100 µM. Besides, the TGI in the assay on U251 CNS and with UO-31 renal was more than 100 µM throughout.
